Test: Inhibitory activity against enzyme MurD isolated from Escherichia coli

Row | IC50 [nM] | Structure (SMILES)
1 | 1500 | C[C@@H]1NC(=O)CCCCCCC[C@H](C(=O)O)NC(=O)[C@H](C)NC1=O
2 | 700 | C[C@@H]1NC(=O)[C@H](CO)NC(=O)CCCCCC[C@H](C(=O)O)NC1=O
3 | 3200 | C[C@@H]1NC(=O)CCCCCCC[C@@H](C(=O)O)NC(=O)[C@H](C)NC1=O
4 | 5100 | C[C@@H]1NC(=O)CCCCCC[C@@H](C(=O)O)NC(=O)[C@H](C)NC1=O
5 | 1500 | C[C@@H]1NC(=O)CCCCCC[C@H](C(=O)O)NC(=O)[C@H](C)NC1=O

Continued, compound first:

Row | Structure (SMILES) | IC50 [nM]
6 | C[C@@H]1NC(=O)[C@H](CO)NC(=O)CCCCCC[C@@H](C(=O)O)NC1=O | 2300
7 | C[C@@H]1NC(=O)[C@H](COC(C)(C)C)NC(=O)CCCCCC[C@@H](C(=O)O)NC1=O | 9000
8 | C[C@@H]1NC(=O)[C@H](COC(C)(C)C)NC(=O)CCCCCC[C@H](C(=O)O)NC1=O | 1900
